In general, IC50 refers to the midpoint of a concentration-inhibition curve.

Each structure is given as a SMILES string. Some results are limits rather than exact numbers.

In this test the target is T1, Polθ polymerase domain (amino acids 1792-2590) (Homo sapiens, UniProt O75417).
T1 construct: 10×Histidine-SUMO (N, cleaved yes); made in house; host or cells: E. coli
T1 sequence (O75417 1792-2590): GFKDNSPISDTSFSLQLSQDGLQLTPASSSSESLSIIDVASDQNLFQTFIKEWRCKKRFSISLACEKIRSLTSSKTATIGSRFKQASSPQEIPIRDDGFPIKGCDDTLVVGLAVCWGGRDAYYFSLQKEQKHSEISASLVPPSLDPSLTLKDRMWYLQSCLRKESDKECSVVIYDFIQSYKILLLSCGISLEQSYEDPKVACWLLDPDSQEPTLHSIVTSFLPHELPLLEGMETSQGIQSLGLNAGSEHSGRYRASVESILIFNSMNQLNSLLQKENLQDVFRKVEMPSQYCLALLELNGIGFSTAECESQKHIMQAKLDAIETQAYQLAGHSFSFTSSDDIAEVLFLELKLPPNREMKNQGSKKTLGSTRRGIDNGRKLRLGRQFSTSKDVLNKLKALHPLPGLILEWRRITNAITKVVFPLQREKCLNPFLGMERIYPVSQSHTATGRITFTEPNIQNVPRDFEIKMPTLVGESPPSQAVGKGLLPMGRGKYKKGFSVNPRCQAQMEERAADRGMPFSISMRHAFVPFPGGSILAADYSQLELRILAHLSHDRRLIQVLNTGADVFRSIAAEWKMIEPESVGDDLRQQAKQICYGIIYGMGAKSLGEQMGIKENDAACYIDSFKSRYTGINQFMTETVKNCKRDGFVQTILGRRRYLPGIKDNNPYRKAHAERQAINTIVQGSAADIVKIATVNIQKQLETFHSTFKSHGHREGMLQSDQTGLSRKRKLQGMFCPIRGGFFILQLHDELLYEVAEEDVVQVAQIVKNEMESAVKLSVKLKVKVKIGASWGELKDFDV
In words: Picogreen assay of Polθ polymerase activity. Format: biochemical. The conditions noted are these: 12-point concentration response, 90 minutes incubation at room temperature, 8 nM Polθ in 2×polymerase mixture, read-out: PolQ IC50. The text has this:
The DNA sequence of the polQ gene (Genebank ID #NM 199420.4) was chemically synthesized. The DNA sequence encoding the polymerase domain (amino acids 1792-2590) was subcloned into an E. coli expression plasmid, resulting in the fusion of 10×Histidine-SUMO tag at the N terminus of the polymerase domain.
The protein was expressed in E. coli. and purified using a 2-step IMAC (immobilized metal chelate affinity chromatography) procedure. Briefly stated, the overexpressed E. coli lysate was subjected to Ni-NTA purification, and an N-terminal tag was digested by a SUMO protease. Then, the excised fragment of 10×Histidine-SUMO tag was removed using Ni-NTA beads. The resulting protein was used for the Picogreen assay, as described below.
The methods of DNA complex preparation were slightly modified from the protocol previously reported (Zatreanu et al., 2021, Nature Communications, 12:3636). Briefly stated, polθ substrate was prepared by mixing Oligo1 (5′-GCG GCT GTC ATA AG-3′) and Oligo2 (5′-GCTACATTGACAATGGCATCAAATCTCAGATTGCGTCTTATGACAGCCGCG-3′) in an annealing buffer (20 mM Tris-Cl, pH 7.5, 50 mM NaCl) to the final concentration of 22 uM and 20 uM, respectively. The Polθ product was prepared by mixing Oligo3 (5′-CGCGGCTGTCATAAGACGCAATCTGAGATTTGATGCCATTGTCAATGTAGC-3′) and Oligo2 (5′-GCTACATTGACAATGGCATCAAATCTCAGATTGCGTCTTATGACAGCCGCG-3′) to the final concentration of 20 uM. The polθ product was used for the top signal control in the Picogreen assay. Both substrate and product were heated to 95° C. […] and cooled slowly to room temperature.
To evaluate the ability of test compounds to inhibit the activity of polθ in vitro, a Picogreen assay was performed to measure polθ IC50 (nM).
The reactions were performed at room temperature in an assay buffer (25 mM Tris-HCl, pH 7.5, 12.5 mM NaCl, 0.5 mM MgCl2, 5% (v/v) glycerol, 0.01% (v/v) Triton X-100, 0.01% (w/v) Bovine serum albumin, 1 mM DTT). Thirty microliters of 2×polymerase mixture (8 nM Polθ enzyme in an assay buffer) were distributed to 96 well plates, test compounds were prepared by dilution in 100% DMSO to obtain the correct dose range for a 12-point concentration response and 1 μl was dispensed into each well, and then 30 microliters of 2×substrate mix (100 nM DNA and 40 uM dNTPs in an assay buffer) was added. After 90 minutes of incubation, the reaction was stopped and DNA was stained by adding 40 microliters of Picogreen solution (1:80 dilution of Picogreen, Invitrogen, Cat #P7581, 25 mM Tris-HCl, pH 7.5, 10 mM EDTA, pH 7.5).
The fluorescence intensity was measured at excitation/emission=485 nm/520 nm using an Ensight plate reader (Perkin Elmer). The data was analyzed by GraphPad Prism software (Version 8.4.3) to calculate IC50.
In the case of `Cc1cc(C(F)(F)F)cc(N2[C@H](C(=O)N(CC#Cc3cnc(N4CCOCC4)cn3)c3ccc(F)c(C)c3)CCS2(=O)=O)n1` [compound 39], the IC50 lay within 1 to 50 nM.

For the compound `Cc1ccc(F)c(N(CC#Cc2cnc(N3CCOCC3)cn2)C(=O)[C@@H]2CCS(=O)(=O)N2c2cc(C(F)(F)F)cc(C)n2)c1` [compound 40], the IC50 was in the range of 1 to 50 nM.

With `Cc1ccc(F)c(N(CC#Cc2cnc(N3CCOCC3)cn2)C(=O)[C@H]2CCS(=O)(=O)N2c2cc(C(F)(F)F)cc(C)n2)c1` [compound 41], the IC50 was more than 101 nM. As for `Cc1cc(C(F)(F)F)cc(N2[C@H](C(=O)N(CC#Cc3cncc(N4CCOCC4)n3)c3ccc(F)c(C)c3)CCS2(=O)=O)n1` [compound 42], the IC50 was 1 to 50 nM. Consider `Cc1cc(C(F)(F)F)cc(N2[C@H](C(=O)N(CC#Cc3ncc(N4CCOCC4)nc3N)c3ccc(F)c(C)c3)CCS2(=O)=O)n1` [compound 43], for which the IC50 fell in the range of 1 to 50 nM.

Turning to `Cc1cc(C(F)(F)F)cc(N2[C@H](C(=O)N(CC#Cc3cnc(N4CCOCC4)c(N)n3)c3ccc(F)c(C)c3)CCS2(=O)=O)n1` [compound 44], the IC50 lay in the range of 1 to 50 nM.

For `Cc1cc(C(F)(F)F)cc(N2[C@H](C(=O)N(CC#Cc3cnc(N4CCOCC4)c(C)n3)c3ccc(F)c(C)c3)CCS2(=O)=O)n1` [compound 45], the IC50 lay in the range of 1 to 50 nM. For `Cc1cc(C(F)(F)F)cc(N2[C@H](C(=O)N(CC#Cc3cnc(N4CCOCC4)c(C(F)(F)F)n3)c3ccc(F)c(C)c3)CCS2(=O)=O)n1` [compound 46], the IC50 fell in the range of 1 to 50 nM. Consider `Cc1cc(C(F)(F)F)cc(N2[C@H](C(=O)N(CC#Cc3cnc(N4C[C@@H](C)O[C@@H](C)C4)cn3)c3ccc(F)c(C)c3)CCS2(=O)=O)n1` [compound 47], for which the IC50 lay in the range of 1 to 50 nM. Turning to `Cc1cc(C(F)(F)F)cc(N2[C@H](C(=O)N(CC#Cc3cnc(N4CC5CCC(C4)O5)cn3)c3ccc(F)c(C)c3)CCS2(=O)=O)n1` [compound 48], the IC50 fell in the range of 1 to 50 nM.

Turning to `Cc1cc(C(F)(F)F)cc(N2[C@H](C(=O)N(CC#Cc3cnc(N4C5CCC4COC5)cn3)c3ccc(F)c(C)c3)CCS2(=O)=O)n1` [compound 49], the IC50 was 1 to 50 nM. `CCN1CCN(c2cnc(C#CCN(C(=O)[C@@H]3CCS(=O)(=O)N3c3cc(C(F)(F)F)cc(C)n3)c3ccc(F)c(C)c3)cn2)CC1` [compound 50]: the half-maximal inhibitory concentration (IC50) was in the range of 1 to 50 nM. With `CCN1CCN(c2cnc(C#CCN(C(=O)[C@@H]3CCS(=O)(=O)N3c3cc(C(F)(F)F)cc(C)n3)c3cc(C)ccc3F)cn2)CC1` [compound 51], the IC50 fell in the range of 1 to 50 nM. The value for `Cc1cc(C(F)(F)F)cc(N2[C@H](C(=O)N(CC#Cc3cnc(N4C[C@H](C)N[C@@H](C)C4)cn3)c3ccc(F)c(C)c3)CCS2(=O)=O)n1` [compound 52] was 1 to 50 nM; that for `Cc1cc(C(F)(F)F)cc(N2[C@H](C(=O)N(CC#Cc3cnc(N4C[C@H](C)N(C(C)C)[C@@H](C)C4)cn3)c3ccc(F)c(C)c3)CCS2(=O)=O)n1` [compound 53] was 1 to 50 nM; that for `Cc1cc(C(F)(F)F)cc(N2[C@H](C(=O)N(CC#Cc3cnc(N4[C@H](C)CN(C(C)C)C[C@H]4C)cn3)c3ccc(F)c(C)c3)CCS2(=O)=O)n1` [compound 55] was 1 to 50 nM. As to `Cc1cc(C(F)(F)F)cc(N2[C@H](C(=O)N(CC#Cc3cnc(-c4c[nH]nn4)cn3)c3ccc(F)c(C)c3)CCS2(=O)=O)n1` [compound 56], the IC50 lay in the range of 1 to 50 nM. As to `Cc1cc(C(F)(F)F)cc(N2[C@H](C(=O)N(CC#Cc3cnc(-n4ccnn4)cn3)c3ccc(F)c(C)c3)CCS2(=O)=O)n1` [compound 57], the IC50 is 1 to 50 nM. Next, `Cc1cc(C(F)(F)F)cc(N2[C@H](C(=O)N(CC#Cc3cnc(-c4ncon4)cn3)c3ccc(F)c(C)c3)CCS2(=O)=O)n1` [compound 58]: more than 101 nM. `Cc1cc(C(F)(F)F)cc(N2[C@H](C(=O)N(CC#Cc3cnc(C#N)cn3)c3ccc(F)c(C)c3)CCS2(=O)=O)n1` [compound 59]: the IC50 is more than 101 nM.

For the compound `Cc1cc(C(F)(F)F)cc(N2[C@H](C(=O)N(CC#Cc3cnc(C(=O)O)cn3)c3ccc(F)c(C)c3)CCS2(=O)=O)n1` [compound 60], the IC50 lay within 1 to 50 nM.
